Measurements: publication PMC7414126 (Scientific Reports, 2020)
Like-named read-outs stand apart in the source and are kept apart here. Each block holds one molecule with its values, some of them ahead of it.

How the values were obtained:
hH2R-Gsαs fusion protein [1] = biological target: T1, hH2R-Gsαs fusion protein (Homo sapiens, UniProt P25021); assay: Radioligand saturation binding on Sf9 membranes; details: membranes of Sf9 insect cells expressing hH2R-Gsαs
T1 construct: made in house; host or cells: Sf9 insect cells (recombinant baculovirus), membrane preparation
Experimental: (§1) All data analysis was performed using Prism 5.0c (GraphPad, San Diego, CA, USA).
Supplementary Figure S7. […] Saturation binding assay was performed as previously described.^3

hH2R [2] = biological target: T2, hH2R (Homo sapiens, UniProt P25021); assay: β-Arrestin2 recruitment assay (split-luciferase complementation), HEK293T-ARRB2-H2R cells; type: cell-based; design: expressed in transfected cells; host or cells: HEK293T-ARRB2-H2R cell line; details: read-out: pKb (β-arrestin2 recruitment) (converted)
hH2R [3] = biological target: T2, hH2R; assay: Flow cytometric saturation binding assay with HEK293T-hH2R-qs5-HA cells; design: expressed in transfected cells; host or cells: HEK293T-hH2R-qs5-HA cells; details: saturation binding at HEK293T-hH2R-qs5-HA cells; mean ± SEM; read-out: pKd (Flow cytometry) (converted)
Experimental: All flow cytometric measurements were performed with FACSCanto™II flow cytometer (Becton Dickinson, Heidelberg, Germany), equipped with an argon laser (488 nm) and a red diode laser (633 nm) (settings: FCS: A, log, 0 V; SSC: A, log, 252 V; ACP: A,H,W, log, 350 V or PerCP-Cy5-5: A,H, log 485 V or PE: A,H,W, log, 420 V) according to general protocols with minor modifications.^4,5 All measurements were performed in duplicate and recorded either in channel PerCP-Cy5 (Py-1, excitation: 488 nm), APC (BODIPY 630/650, excitation: 633 nm) or PE (TAMRA, excitation: 488 nm). Data acquisition was stopped after 10,000 gated events.
Cell culture and preparation of HEK293T-hH2R-qs5-HA cells was performed as described.^4 Briefly, cells were maintained in 25 or 175 cm^2 flasks (Sarstedt, Nümbrecht, Germany) in a humidified atmosphere (95% air, 5% CO2) at 37 °C using Dulbecco`s Modified Eagle`s Medium supplemented with 2 mM L-glutamine (Sigma-Aldrich, Munich, Germany), 10% FCS, 400 µg/mL geneticin (G418), and 100 µg/mL hygromycin B (AG Scientific, San Diego, CA, USA). On the day of the experiment, cells were detached with trypsin/EDTA (0.05%/0.2%) and centrifuged (500 x g, 5 min). The cell pellet was resuspended in Leibovitz’ L-15 medium containing 1% FCS and the cell density was adjusted to 1 x 10^6 cells/mL. The serial dilutions of the tested fluorescent ligands and famotidine (competitor, for non-specific binding) were prepared in DMSO/H2O (1:1, v/v). All incubation steps were performed in 96-well Primaria^TM plates (CORNING, NY, USA). 200 µL of the adjusted cell suspension were either added to 2 µL of DMSO/H2O (1:1, v/v, total binding) or to 2 µl of famotidine (300-fold excess over the fluorescent ligand, non-specific binding). Incubation was started by addition of 2 µL of the respective fluorescent ligand in different concentrations (100-fold concentrated with respect to the final concentration). […] Samples were transferred to 5 mL polystyrol FACS tubes (Sarstedt, Nümbrecht, Germany) and measured immediately. […]

NLuc-hH2R [4] = biological target: T3, NLuc-hH2R (Homo sapiens, UniProt P25021); assay: NanoBRET saturation binding assay
T3 construct: membrane signal peptide of the murine 5HT3A receptor (N); expressed in transfected cells
Experimental: (§2) KG, Wertheim, Germany). The cells were then incubated at 37 °C in a humidified atmosphere (no additional CO2) overnight. […] After 60 min incubation time at 27 °C, 10 μL of the substrate furimazine, which was diluted according to manufacturer's protocol beforehand, were added. After 5 min of equilibration time at 27 °C, the measurement was started. […] After addition of the diluted substrate, the plate was placed inside the reader for 5 min to equilibrate. […] Dissociation experiments were conducted in wells, which have been preincubated with 8 as described above for association experiments. […] All measurements were performed on a TECAN InfiniteLumi plate reader (TECAN, Grödig, Austria) at 27 °C using the Blue2 NB (460 nm ± 35 nm, bandpass) and the Red NB (> 610 nm, longpass) filter combination with an integration time of 100 ms. For the kinetic experiments, integration time was increased to 500 ms for both channels to reduce noise. BRET ratios were calculated by dividing the acceptor emission (red NB) by the donor luminescence (Blue2 NB). For all BRET binding experiments, specific binding was calculated by subtracting non-specific binding from total binding yielding the “corrected BRET ratio”. For saturation binding experiments, total and non-specific binding were fitted simultaneously using the “one-site total and nonspecific binding” fit. Specific binding was fitted accordingly applying the “one-site specific binding” fit. […] The normalized competition binding curves were then fitted with a four-parameter logistic fit yielding pIC50-values. These were transformed into pKi-values using the Cheng-Prusoff equation[38].

[5] = Chemical stability in binding buffer (HPLC); type: physicochemical
Experimental: The chemical stability of the fluorescent H2R ligands UR-KAT478 (8), UR-KAT515 (9) and UR-KAT514 (10) was investigated at physiological pH (7.4) in binding buffer (12.5 mM MgCl2, 1 mM EDTA and 75 mM Tris/HCl, pH 7.4)^1 and in case of UR-KAT514 (10) as well in a mixture of DMSO/binding buffer 1:1. Incubation was started by addition of 27.5 μL of a 2.5 mM solution of the respective compounds in DMSO/Millipore H2O 1:1, which were freshly prepared from a 5 mM stock solution in DMSO, to 522.5 μL of binding buffer or DMSO/binding buffer 1:1 yielding a final concentration of […]. The samples were shaken for up to 4 days at 700 rpm. After indicated time periods, a 70 μL aliquot was taken and diluted with 70 µL of a mixture of MeCN, Millipore H2O and 10% aqueous TFA (60:90:1). Prior to HPLC analysis, the samples were stored at -20 °C. 50 μL of the resulting solution were analyzed by HPLC as described in the experimental section. The absorption was detected at 220 nm. The blank HPLC run was performed under identical conditions without any ligand.

hH2R-Gsαs fusion protein [6] = biological target: T1, hH2R-Gsαs fusion protein; assay: Radioligand competition binding with [3H]UR-DE257 on Sf9 membranes; details: read-out: pKi (RL comp. binding Sf9 membranes) (converted)
Experimental: as §1

hH2R [7] = details: [125I]-iodoaminopotentidine, re-calculated from published Ki; cited from earlier work
NLuc-hH2R [8] = biological target: T3, NLuc-hH2R; assay: BRET-based competition binding with fluorescent ligand 8; details: competition with 8 (c = 50 nM), live HEK293T cells stably expressing NLuc-hH2R, 60 min; mean ± SEM; read-out: pKi (NanoBRET) (converted)
Experimental: as §2

hH2R-Gsαs fusion protein [9] = biological target: T4, hH2R-Gsαs fusion protein (Homo sapiens, UniProt P25021+P63092); details: [3H]UR-DE257; cited from earlier work
T4 construct: made in house; host or cells: Sf9 insect cells (recombinant baculovirus), membrane preparation

[10] = representative NanoBRET saturation isotherm, result from single experiment, HEK293T NLuc-hH2R, read-out: Kd* (single experiment)
[11] = saturation binding, live HEK293T cells stably expressing NLuc-hH2R, mean ± SEM, read-out: pKd (NanoBRET) (converted)

T1 sequence (P25021+P63092 fused): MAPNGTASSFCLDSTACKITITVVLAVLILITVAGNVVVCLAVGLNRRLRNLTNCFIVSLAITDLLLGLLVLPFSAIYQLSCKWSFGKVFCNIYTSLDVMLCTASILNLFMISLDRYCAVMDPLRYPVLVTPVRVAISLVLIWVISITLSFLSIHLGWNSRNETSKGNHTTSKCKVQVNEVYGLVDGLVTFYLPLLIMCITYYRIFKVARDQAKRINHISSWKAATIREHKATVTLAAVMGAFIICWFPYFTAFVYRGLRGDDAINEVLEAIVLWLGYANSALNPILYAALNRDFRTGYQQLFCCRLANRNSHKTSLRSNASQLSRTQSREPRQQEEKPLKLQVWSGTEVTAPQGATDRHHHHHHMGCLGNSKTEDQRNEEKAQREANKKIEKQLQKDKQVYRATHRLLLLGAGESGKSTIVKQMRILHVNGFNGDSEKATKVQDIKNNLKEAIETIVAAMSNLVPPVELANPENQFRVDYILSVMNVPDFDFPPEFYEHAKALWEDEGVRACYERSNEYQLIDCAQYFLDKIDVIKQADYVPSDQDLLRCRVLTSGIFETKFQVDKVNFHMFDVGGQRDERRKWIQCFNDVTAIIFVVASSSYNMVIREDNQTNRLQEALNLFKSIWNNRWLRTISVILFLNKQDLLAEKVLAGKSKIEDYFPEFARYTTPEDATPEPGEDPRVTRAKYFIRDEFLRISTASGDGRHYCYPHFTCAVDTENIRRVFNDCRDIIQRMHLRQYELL
T3 sequence (P25021 whole entry): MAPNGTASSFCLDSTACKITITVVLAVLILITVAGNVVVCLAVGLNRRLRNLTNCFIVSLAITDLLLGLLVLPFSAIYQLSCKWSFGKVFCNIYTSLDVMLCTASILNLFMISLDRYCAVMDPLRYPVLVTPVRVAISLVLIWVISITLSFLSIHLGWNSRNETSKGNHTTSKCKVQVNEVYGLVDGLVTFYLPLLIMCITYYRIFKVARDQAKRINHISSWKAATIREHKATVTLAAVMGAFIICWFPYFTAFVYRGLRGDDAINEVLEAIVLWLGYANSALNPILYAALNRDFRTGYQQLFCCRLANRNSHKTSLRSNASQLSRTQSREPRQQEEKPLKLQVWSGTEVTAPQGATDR
T2 sequence (P25021 whole entry): as above
T4 sequence (P25021+P63092 fused): as the sequence (P25021+P63092 fused) above

Kd (hH2R-Gsαs fusion protein [1]): 11.2 nM
SMILES: [3H]CC([3H])C(=O)NCCCCCCNc1c(NCCCOc2cccc(CN3CCCCC3)c2)c(=O)c1=O (stereo not drawn) [Compound 7]

Kb (hH2R [2]): 66.1 nM
Kd (hH2R [3]): 562 nM
Kd (NLuc-hH2R [4]; [10]): 143 nM
Kd (NLuc-hH2R [4]; [11]): 145 nM
Chemical stability (decomposition) ([5]; binding buffer pH 7.4, rt, 24 h incubation): no decomposition
Ki (hH2R-Gsαs fusion protein [6]): 100 nM
SMILES: CN(C)c1ccc2c(-c3ccc(C(=O)NCCCCNc4c(NCCCOc5cccc(CN6CCCCC6)c5)c(=O)c4=O)cc3C(=O)[O-])c3ccc(N(C)C)cc3[o+]c2c1 [Compound 9, 2-(3,6-Bis(dimethylamino)xanthylium-9-yl)-5-((4-((3,4-dioxo-2-((3-(3-(piperidin-1-ylmethyl)phenoxy)propyl)amino)cyclo-but-1-en-1-yl)amino)butyl)carbamoyl)benzoate]

Kb (hH2R [2]): 8.13 nM
Kd (hH2R [3]): 13.8 nM
Kd (NLuc-hH2R [4]; [10]): 2.99 nM
Kd (NLuc-hH2R [4]; [11]): 2.57 nM
Adsorption to plastic vessel ([5]; BB/DMSO 1:1, rt): reduced adsorption
Chemical stability (degradation) ([5]; binding buffer pH 7.4, rt): no chemical degradation
HPLC signal of compound after incubation (adsorption to plastic vessel) ([5]; binding buffer pH 7.4, rt, after one hour): almost no signal
Ki (hH2R-Gsαs fusion protein [6]): 4.47 nM
SMILES: O=C(CCCCCNC(=O)COc1ccc(/C=C/C2=[N+]3C(=Cc4ccc(-c5cccs5)n4[B-]3(F)F)C=C2)cc1)NCCCCNc1c(NCCCOc2cccc(CN3CCCCC3)c2)c(=O)c1=O [Compound 10]

The next lines start with the molecule.

SMILES: CNC(=C[N+](=O)[O-])NCCSCc1ccc(CN(C)C)o1 [Compound 3, ranitidine]
pKi (RL comp. binding CHO membranes) (hH2R [7]): 7.07[32]

SMILES: CCCCCCCCCCCCNC(=N)NCCCc1sc(N)nc1C [Compound 11, reference compound]
Ki (hH2R-Gsαs fusion protein [6]): 251 nM
Ki (NLuc-hH2R [8]): 1020 nM

SMILES: CN/C(=N/CCSCc1nc[nH]c1C)NC#N [Compound 2, cimetidine]
pKi (RL comp. binding CHO membranes) (hH2R [7]): 6.18[32]

SMILES: Cc1nc(N)sc1CCCNC(=N)NCCCCCCCCNC(=N)NCCCc1sc(N)nc1C [Compound 12, reference compound]
Ki (hH2R-Gsαs fusion protein [6]): 457 nM
Ki (NLuc-hH2R [8]): 1320 nM

SMILES: NC(N)=Nc1nc(CSCCC(N)=NS(N)(=O)=O)cs1 [Compound 4, famotidine]
pKi (RL comp. binding Sf9 membranes) (hH2R-Gsαs fusion protein [9]): 6.87[28]
Ki (NLuc-hH2R [8]): 11.5 nM
pKi (RL comp. binding CHO membranes) (hH2R [7]): 7.80[32]
